Laboratory results: patent US20140155389A1, “BICYCLIC INHIBITORS OF ALK” (ABBVIE INC., priority 2011, published 2014)
pKi: −log10 of the molar value.

Biological target: T1, ALK (Homo sapiens, UniProt Q9UM73)
T1 construct: purchased Millipore
Assay: ALK kinase assay (HTRF)
Type: biochemical
Settings: apparent Ki from IC50 by Cheng-Prusoff; ALK (Millipore) 3 nM or 4 nM, 50 μM ATP, 1 h at room temperature; read-out: HTRF_ALK Human - Ki

T1 sequence (Q9UM73 19-1620): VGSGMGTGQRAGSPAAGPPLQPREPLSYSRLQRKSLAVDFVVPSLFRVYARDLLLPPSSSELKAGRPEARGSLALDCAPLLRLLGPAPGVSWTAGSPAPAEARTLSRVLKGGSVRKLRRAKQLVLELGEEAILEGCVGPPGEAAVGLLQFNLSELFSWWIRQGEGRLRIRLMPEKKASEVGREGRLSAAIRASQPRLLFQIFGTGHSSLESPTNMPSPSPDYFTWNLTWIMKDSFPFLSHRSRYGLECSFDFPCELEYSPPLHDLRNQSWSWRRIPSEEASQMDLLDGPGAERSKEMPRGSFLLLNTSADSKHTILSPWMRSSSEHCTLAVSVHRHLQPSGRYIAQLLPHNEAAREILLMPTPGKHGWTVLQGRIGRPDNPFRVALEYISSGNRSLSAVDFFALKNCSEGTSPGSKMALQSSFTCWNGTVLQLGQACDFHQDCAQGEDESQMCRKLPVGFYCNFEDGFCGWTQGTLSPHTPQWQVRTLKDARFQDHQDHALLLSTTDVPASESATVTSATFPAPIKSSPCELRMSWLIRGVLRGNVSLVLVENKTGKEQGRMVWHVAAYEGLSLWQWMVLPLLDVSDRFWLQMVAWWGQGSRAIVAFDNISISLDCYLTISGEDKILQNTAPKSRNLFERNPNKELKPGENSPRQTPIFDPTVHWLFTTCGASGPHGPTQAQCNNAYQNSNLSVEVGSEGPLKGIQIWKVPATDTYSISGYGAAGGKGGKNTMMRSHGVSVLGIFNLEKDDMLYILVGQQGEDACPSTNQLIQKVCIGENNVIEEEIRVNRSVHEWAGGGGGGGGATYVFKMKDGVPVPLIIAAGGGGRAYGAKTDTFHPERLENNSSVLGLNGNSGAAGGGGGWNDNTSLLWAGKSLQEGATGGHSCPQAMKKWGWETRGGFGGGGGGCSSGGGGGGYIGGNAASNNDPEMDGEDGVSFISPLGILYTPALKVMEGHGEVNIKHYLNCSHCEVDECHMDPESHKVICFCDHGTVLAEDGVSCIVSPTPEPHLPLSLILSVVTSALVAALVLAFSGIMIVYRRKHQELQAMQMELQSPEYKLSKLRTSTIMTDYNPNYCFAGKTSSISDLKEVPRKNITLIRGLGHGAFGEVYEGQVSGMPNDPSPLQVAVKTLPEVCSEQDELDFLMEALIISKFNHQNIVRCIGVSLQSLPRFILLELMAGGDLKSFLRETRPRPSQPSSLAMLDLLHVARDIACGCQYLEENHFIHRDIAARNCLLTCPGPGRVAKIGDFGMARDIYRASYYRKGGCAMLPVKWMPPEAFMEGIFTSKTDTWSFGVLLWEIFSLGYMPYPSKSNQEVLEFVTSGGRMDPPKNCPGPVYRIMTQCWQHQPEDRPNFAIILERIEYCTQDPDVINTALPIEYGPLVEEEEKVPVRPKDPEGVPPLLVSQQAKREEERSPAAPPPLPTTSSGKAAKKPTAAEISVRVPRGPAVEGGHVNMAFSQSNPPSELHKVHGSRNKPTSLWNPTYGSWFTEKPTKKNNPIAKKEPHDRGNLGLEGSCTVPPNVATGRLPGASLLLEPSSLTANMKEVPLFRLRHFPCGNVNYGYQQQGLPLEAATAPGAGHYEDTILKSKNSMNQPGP

SMILES | pKi
COc1cc(C2CCNCC2)ccc1Nc1cc(CCC2CC2)nc2cn[nH]c(=O)c12 [Example 104, 2-(2-cyclopropylethyl)-4-{[2-methoxy-4-(piperidin-4-yl)phenyl]amino}pyrido[2,3-d]pyridazin-5(6H)-one] | 7.12
COc1cc(CC(=O)N2CCCC2)ccc1Nc1nc(Cc2c(Cl)cccc2Cl)cc2cn[nH]c(=O)c12 [Example 18, 7-(2,6-dichlorobenzyl)-5-({2-methoxy-4-[2-oxo-2-(pyrrolidin-1-yl)ethyl]phenyl}amino)pyrido[3,4-d]pyridazin-4(3H)-one] | 5.51
Cc1cc(N2CCNCC2)cc(C)c1Nc1nc(Cc2c(Cl)cccc2Cl)cc2cnnc(O)c12 [Example 21, 7-(2,6-dichlorobenzyl)-5-{[2,6-dimethyl-4-(piperazin-1-yl)phenyl]amino}pyrido[3,4-d]pyridazin-4-ol] | 6.43
COc1cc(N2CCNCC2)ccc1Nc1nc(Nc2c(F)cc(F)cc2F)cc2cn[nH]c(=O)c12 [Example 52, 5-{[2-methoxy-4-(piperazin-1-yl)phenyl]amino}-7-[(2,4,6-trifluorophenyl)amino]pyrido[3,4-d]pyridazin-4(3H)-one] | 8.70
COc1cc(N2CCNCC2)ccc1Nc1cc(Oc2ccccc2Cl)nc2cn[nH]c(=O)c12 [Example 89, 2-(2-chlorophenoxy)-4-{[2-methoxy-4-(piperazin-1-yl)phenyl]amino}pyrido[2,3-d]pyridazin-5(6H)-one] | 7.82
COc1cc(N2CCNCC2)ccc1Nc1nc(NCCN(C)C)cc2cn[nH]c(=O)c12 [Example 45, 7-{[2-(dimethylamino)ethyl]amino}-5-{[2-methoxy-4-(piperazin-1-yl)phenyl]amino}pyrido[3,4-d]pyridazin-4(3H)-one] | 7.29
COc1cc(C2CCNCC2)ccc1Nc1cc(CCN2CCOCC2)nc2cn[nH]c(=O)c12 [Example 102, 4-{[2-methoxy-4-(piperidin-4-yl)phenyl]amino}-2-[2-(morpholin-4-yl)ethyl]pyrido[2,3-d]pyridazin-5(6H)-one] | 6.48
COc1cc(N2CCNCC2)ccc1Nc1nc(Oc2ccncc2Cl)cc2cn[nH]c(=O)c12 [Example 81, 7-[(3-chloropyridin-4-yl)oxy]-5-{[2-methoxy-4-(piperazin-1-yl)phenyl]amino}pyrido[3,4-d]pyridazin-4(3H)-one] | < 6.33
COc1cc2c(cc1Nc1nc(Cc3c(Cl)cccc3Cl)cc3cn[nH]c(=O)c13)CCNC2 [Example 88, 7-(2,6-dichlorobenzyl)-5-[(7-methoxy-1,2,3,4-tetrahydroisoquinolin-6-yl)amino]pyrido[3,4-d]pyridazin-4(3H)-one] | 8.40
COc1cc(N2CCN(C3CCN(C)CC3)CC2)ccc1Nc1nc(Cc2c(Cl)cccc2Cl)cc2cn[nH]c(=O)c12 [Example 15, 7-(2,6-dichlorobenzyl)-5-({2-methoxy-4-[4-(1-methylpiperidin-4-yl)piperazin-1-yl]phenyl}amino)pyrido[3,4-d]pyridazin-4(3H)-one] | 8.52
COc1cc(N2CCNCC2)ccc1Nc1nc(Oc2c(Cl)cc(F)cc2Cl)cc2cn[nH]c(=O)c12 [Example 80, 7-(2,6-dichloro-4-fluorophenoxy)-5-{[2-methoxy-4-(piperazin-1-yl)phenyl]amino}pyrido[3,4-d]pyridazin-4(3H)-one] | 9.00
COc1cc(N2CCNCC2)ccc1Nc1nc(Cc2c(Cl)cccc2Cl)cc2c1C(=O)NCN2 [Example 1, 7-(2,6-dichlorobenzyl)-5-{[2-methoxy-4-(piperazin-1-yl)phenyl]amino}-2,3-dihydropyrido[4,3-d]pyrimidin-4(1H)-one] | 7.96
COc1cc(CN2CCNCC2)ccc1Nc1cc(Cc2ccccc2Cl)nc2cn[nH]c(=O)c12 [Example 92, 2-(2-chlorobenzyl)-4-{[2-methoxy-4-(piperazin-1-ylmethyl)phenyl]amino}pyrido[2,3-d]pyridazin-5(6H)-one] | 7.82
COc1cc(N2CCNCC2)ccc1Nc1nc(Oc2ccccc2C#N)cc2cn[nH]c(=O)c12 [Example 115, 2-[(5-{[2-methoxy-4-(piperazin-1-yl)phenyl]amino}-4-oxo-3,4-dihydropyrido[3,4-d]pyridazin-7-yl)oxy]benzonitrile] | 8.22
COc1cc(N2CCNCC2)ccc1Nc1cc(Cc2c(Cl)cccc2Cl)nc2cn[nH]c(=O)c12 [Example 70, 2-(2,6-dichlorobenzyl)-4-{[2-methoxy-4-(piperazin-1-yl)phenyl]amino}pyrido[2,3-d]pyridazin-5(6H)-one] | 9.00
COc1cc(C2CCNCC2)ccc1Nc1cc(Cc2cc(F)ccc2F)nc2cn[nH]c(=O)c12 [Example 110, 2-(2,5-difluorobenzyl)-4-{[2-methoxy-4-(piperidin-4-yl)phenyl]amino}pyrido[2,3-d]pyridazin-5(6H)-one] | 7.80
COc1cc(N2CCNCC2)ccc1Nc1nc(N2CCCCC2)cc2cn[nH]c(=O)c12 [Example 39, 5-{[2-methoxy-4-(piperazin-1-yl)phenyl]amino}-7-(piperidin-1-yl)pyrido[3,4-d]pyridazin-4(3H)-one] | 8.15
COc1cc(C2CCNCC2)ccc1Nc1cc(Cc2c(F)cccc2Cl)nc2cn[nH]c(=O)c12 [Example 112, 2-(2-chloro-6-fluorobenzyl)-4-{[2-methoxy-4-(piperidin-4-yl)phenyl]amino}pyrido[2,3-d]pyridazin-5(6H)-one] | 8.40
O=c1[nH]ncc2cc(Oc3ccccc3Cl)nc(Nc3ccc(N4CCNCC4)cc3OC(F)F)c12 [Example 117, 7-(2-chlorophenoxy)-5-{[2-(difluoromethoxy)-4-(piperazin-1-yl)phenyl]amino}pyrido[3,4-d]pyridazin-4(3H)-one] | 7.82
O=c1[nH]ncc2cc(Cc3c(Cl)cccc3Cl)nc(Nc3ccc(N4CCNCC4)cc3Br)c12 [Example 61, 5-{[2-bromo-4-(piperazin-1-yl)phenyl]amino}-7-(2,6-dichlorobenzyl)pyrido[3,4-d]pyridazin-4(3H)-one] | 8.70

Now from value to compound:

pKi | SMILES
7.80 | COc1cc(N2CCNCC2)ccc1Nc1nc(NCc2ccco2)cc2cnnc(O)c12 [Example 38, 7-[(furan-2-ylmethyl)amino]-5-{[2-methoxy-4-(piperazin-1-yl)phenyl]amino}pyrido[3,4-d]pyridazin-4-ol]
9.00 | COc1cc(N2CCNCC2)ccc1Nc1nc(Nc2c(F)ccc(Cl)c2Cl)cc2cn[nH]c(=O)c12 [Example 65, 7-[(2,3-dichloro-6-fluorophenyl)amino]-5-{[2-methoxy-4-(piperazin-1-yl)phenyl]amino}pyrido[3,4-d]pyridazin-4(3H)-one]
9.00 | COc1cc(N2CCNCC2)ccc1Nc1nc(Oc2c(Cl)cccc2Cl)cc2cn[nH]c(=O)c12 [Example 63, 7-(2,6-dichlorophenoxy)-5-{[2-methoxy-4-(piperazin-1-yl)phenyl]amino}pyrido[3,4-d]pyridazin-4(3H)-one]
8.70 | COc1cc(N2CCNCC2)ccc1Nc1nc(Nc2c(F)cccc2F)cc2cn[nH]c(=O)c12 [Example 32, 7-[(2,6-difluorophenyl)amino]-5-{[2-methoxy-4-(piperazin-1-yl)phenyl]amino}pyrido[3,4-d]pyridazin-4(3H)-one]
9.70 | COc1cc(N2CCNCC2)ccc1Nc1nc(Nc2c(Cl)cncc2Cl)cc2cn[nH]c(=O)c12 [Example 33, 7-[(3,5-dichloropyridin-4-yl)amino]-5-{[2-methoxy-4-(piperazin-1-yl)phenyl]amino}pyrido[3,4-d]pyridazin-4(3H)-one]
8.40 | COc1cc(N2CCNCC2)ccc1Nc1nc(Nc2ccc(Cl)cc2Cl)cc2cnnc(O)c12 [Example 34, 7-[(2,4-dichlorophenyl)amino]-5-{[2-methoxy-4-(piperazin-1-yl)phenyl]amino}pyrido[3,4-d]pyridazin-4-ol]
7.68 | Oc1nncc2cc(Cc3c(Cl)cccc3Cl)nc(Nc3ccc(N4CCNCC4)cc3OC(F)(F)F)c12 [Example 64, 7-(2,6-dichlorobenzyl)-5-{[4-(piperazin-1-yl)-2-(trifluoromethoxy)phenyl]amino}pyrido[3,4-d]pyridazin-4-ol]
8.10 | CCOc1cc(N2CCNCC2)ccc1Nc1nc(Oc2ccccc2Cl)cc2cnnc(O)c12 [Example 114, 7-(2-chlorophenoxy)-5-{[2-ethoxy-4-(piperazin-1-yl)phenyl]amino}pyrido[3,4-d]pyridazin-4-ol]
8.40 | COc1cc(N2CCNCC2)ccc1Nc1nc(Nc2ccccc2F)cc2cn[nH]c(=O)c12 [Example 48, 7-[(2-fluorophenyl)amino]-5-{[2-methoxy-4-(piperazin-1-yl)phenyl]amino}pyrido[3,4-d]pyridazin-4(3H)-one]
8.40 | COc1cc(N2CCNCC2)ccc1Nc1nc(Oc2ccccc2F)cc2cnnc(O)c12 [Example 76, 7-(2-fluorophenoxy)-5-{[2-methoxy-4-(piperazin-1-yl)phenyl]amino}pyrido[3,4-d]pyridazin-4-ol]
8.70 | N#Cc1cc(N2CCNCC2)ccc1Nc1nc(Oc2ccccc2Cl)cc2cnnc(O)c12 [Example 120, 2-{[7-(2-chlorophenoxy)-4-hydroxypyrido[3,4-d]pyridazin-5-yl]amino}-5-(piperazin-1-yl)benzonitrile]
7.82 | COc1cc(N2CCNCC2)ccc1Nc1nc(Nc2ccccn2)cc2cn[nH]c(=O)c12 [Example 43, 5-{[2-methoxy-4-(piperazin-1-yl)phenyl]amino}-7-(pyridin-2-ylamino)pyrido[3,4-d]pyridazin-4(3H)-one]
8.22 | COc1cc(N2CCNCC2)ccc1Nc1nc(Nc2cc(Cl)ccc2F)cc2cn[nH]c(=O)c12 [Example 25, 7-[(5-chloro-2-fluorophenyl)amino]-5-{[2-methoxy-4-(piperazin-1-yl)phenyl]amino}pyrido[3,4-d]pyridazin-4(3H)-one]
7.82 | COc1cc(N2CCNCC2)ccc1Nc1nc(Oc2ccccc2Cl)cc2c(C)nnc(O)c12 [Example 119, 7-(2-chlorophenoxy)-5-{[2-methoxy-4-(piperazin-1-yl)phenyl]amino}-1-methylpyrido[3,4-d]pyridazin-4-ol]
7.24 | COc1ccccc1Nc1nc(Nc2ccc(N3CCNCC3)cc2)cc2cnnc(O)c12 [Example 113, 5-[(2-methoxyphenyl)amino]-7-{[4-(piperazin-1-yl)phenyl]amino}pyrido[3,4-d]pyridazin-4-ol]
